These results are taken from patent US7332631B2, “Fc receptor modulating compounds and compositions” (Trillium Therapeutics Inc., priority 2002, dated 2008).

“And” between values parts separate entries of the source, which are not always exact repeats. Equal entries are not always repeated. A value given as a limit tells only on which side of the number the result lay.

The nature of data set [1]: Solubility remark in the platelet activation screen. The settings on record: printed instead of a % inhibition value. Type of data set: physicochemical.
Another data set deals with T1, FcγRIIa (Homo sapiens, UniProt P12318).
T1 construct: endogenous in cells; host or cells: washed human platelets
T1 sequence (P12318 34-317): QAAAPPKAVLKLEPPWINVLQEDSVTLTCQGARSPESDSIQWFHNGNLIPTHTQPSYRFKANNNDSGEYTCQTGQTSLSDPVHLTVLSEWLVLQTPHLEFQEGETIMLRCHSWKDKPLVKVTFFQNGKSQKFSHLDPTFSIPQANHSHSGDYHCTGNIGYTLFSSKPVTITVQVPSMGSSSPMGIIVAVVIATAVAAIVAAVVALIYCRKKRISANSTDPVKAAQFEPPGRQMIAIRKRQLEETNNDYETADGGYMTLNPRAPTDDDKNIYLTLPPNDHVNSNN
Put plainly: FACS assay of activation of human platelets by heat aggregated IgG (HAGG), P-Selectin expression. Type of data set: cell-based. The settings on record: washed human platelets, HAGG as agonist; several values in a cell = repeat determinations; '(ICnn)' after a '<' bound = inhibition level at that concentration; read-out: Concentration at 50% inhibition of platelet activation by HAGG. How it is done: The compounds of Table 1 were screened in a FcγRIIa dependent platelet activation assay and/or aggregation assay where platelets are activated using heat aggregated human immunoglobulin G as an immune complex. Compounds inhibiting this process were then tested for specificity. Note that the platelets were used as the target as the only Fc receptor expressed on these cells is FcγRIIa. In addition, they are very difficult to inhibit and therefore this assists in identifying compounds with reasonable potency.
The compounds of the present invention were initially screened in a rapid FACS screening assay, measuring activation of human platelets by heat aggregated IgG. […] In addition, platelets are very sensitive to a range of stimuli and activate rapidly. Activation is measured by the appearance of the protein P-Selectin on the platelet membrane after exposure to various stimuli. The stimuli were heat aggregated with IgG and as specificity controls, collagen or thrombin.
Specifically, this assay utilises washed platelets and heat aggregated IgG (HAGG) as an immune complex (agonist) to activate and crosslink FcγRIIa. Because this is a primary screen a single concentration of small molecule inhibitor is added to the platelets (final concentration of 500 μg/ml) and allowed to incubate for 30 minutes. Heat Aggregated IgG (HAGG) (40 μg/ml) is then added to the platelets and allowed to incubate for 30 minutes. Paraformaldehyde is added to the platelets for 30 minutes prior to washing. Anti-P-Selectin (FITC conjugated) and Anti-CD41 (PE conjugated) are added and the platelets are then screened by FACS to detect expression of P-Selectin, a marker of platelet activation and CD41, which is expressed by all viable platelets.
In summary, for each compound tested the activity was measured as a function of inhibition of platelet activation and/or platelet aggregation as detailed above. Specificity is defined as specific inhibition of immune complex induced platelet activation but with no effect on arachidonic acid induced activation (and where tested no effect on thrombin, collagen or ADP induced activation).
The compounds were titrated and evaluated for capacity to prevent aggregated IgG induction of p-selectin expression as a measure of activation.
For orientation: A flow cytometer gives signals particle by particle.

In the case of `O=C(O)c1cccc(/C=N/Nc2cc(Cl)cc(Cl)c2)c1` [Compound 080], the “Solubility (word printed in the % inhibition column)” value in data set [1] is recorded as “Insoluble”.

Consider `COc1ccc2sc(C(=O)O)c(OC3CCCCC3)c2c1` [Compound 276, 3-Cyclohexyloxy-5-methoxy-1-benzo[b]thiophene-2-carboxylic acid], for which the melting point lay within 176 to 177 °C. For the same molecule, the IC50 on FcγRIIa was < 165 µM and 170 µM.

By melting point is commonly meant the temperature of the solid-liquid transition.
